Assay results as given in ChEMBL document CHEMBL1201862, “PubChem BioAssay data set” (2004).
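The compound was tested at five concentrations on cells cultured in 96-well plates, with a 48-hour exposure period. Abbreviation: GI50, concentration required for 50% inhibition of growth.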 Activity calls are given as the source filed them. Rule as the data show it: active = GI50 up to about 1.1 µM and inactive = higher.

Key:
Assay in all cases: NCI anticancer screen, dose series, 48 h
786-0 = system: 786-0
A498 = system: A498
A549 = system: A549
ACHN = system: ACHN
BT-549 = system: BT-549
CAKI-1 = system: CAKI-1
CCRF-CEM = system: CCRF-CEM
DU-145 = system: DU-145
EKVX = system: EKVX
HCC 2998 = system: HCC 2998
HCT-116 = system: HCT-116
HCT-15 = system: HCT-15
HL-60 = system: HL-60
HOP-62 = system: HOP-62
HOP-92 = system: HOP-92
HT-29 = system: HT-29
Hs-578T = system: Hs-578T
IGROV-1 = system: IGROV-1
K562 = system: K562
KM12 = system: KM12
LOX IMVI = system: LOX IMVI
M14 = system: M14
MCF7 = system: MCF7
MDA-MB-231 = system: MDA-MB-231
MDA-MB-435 = system: MDA-MB-435
MDA-N = system: MDA-N
MOLT-4 = system: MOLT-4
Malme-3M = system: Malme-3M
NCI-H226 = system: NCI-H226
NCI-H23 = system: NCI-H23
NCI-H460 = system: NCI-H460
NCI/ADR-RES = system: NCI/ADR-RES
OVCAR-3 = system: OVCAR-3
OVCAR-4 = system: OVCAR-4
OVCAR-5 = system: OVCAR-5
OVCAR-8 = system: OVCAR-8
PC-3 = system: PC-3
RPMI-8226 = system: RPMI-8226
SF-295 = system: SF-295
SK-MEL-28 = system: SK-MEL-28
SK-MEL-2 = system: SK-MEL-2
SK-MEL-5 = system: SK-MEL-5
SK-OV-3 = system: SK-OV-3
SN12C = system: SN12C
SNB-19 = system: SNB-19
SR = system: SR
SW-620 = system: SW-620
T47D = system: T47D
TK-10 = system: TK-10
U-251 = system: U-251
UACC-257 = system: UACC-257
UACC-62 = system: UACC-62
UO-31 = system: UO-31
NCI-H522 = system: NCI-H522
RXF 393 = system: RXF 393
SF-268 = system: SF-268
SNB-75 = system: SNB-75
COLO 205 = system: COLO 205
SF-539 = system: SF-539

CC(=O)OC1O[C@@H](C(C)(C)O)CC[C@@H]1[C@H]1CC[C@@]2(C)C3=C(CC[C@]12C)[C@@]1(C)C[C@@H](OC(=O)CC(C)(O)CC(=O)O)[C@H](OC(C)=O)C(C)(C)C1CC3 (stereo partly specified)
GI50 (786-0): 19.3 µM (inactive) | GI50 (A498): 19.2 µM (inactive) | GI50 (A549): 17.2 µM (inactive) | GI50 (ACHN): 18 µM (inactive) | GI50 (BT-549): 15.8 µM (inactive) | GI50 (CAKI-1): 15.8 µM (inactive) | GI50 (CCRF-CEM): 20.8 µM (inactive) | GI50 (DU-145): 19.1 µM (inactive) | GI50 (EKVX): 17.5 µM (inactive) | GI50 (HCC 2998): 19 µM (inactive) | GI50 (HCT-116): > 10 µM (inactive) | GI50 (HCT-15): 22.4 µM | GI50 (HL-60): 24.4 µM (inactive) | GI50 (HOP-62): 18.8 µM (inactive) | GI50 (HOP-92): 16.7 µM (inactive) | GI50 (HT-29): 20.1 µM (inactive) | GI50 (Hs-578T): 19.5 µM (inactive) | GI50 (IGROV-1): 19.2 µM (inactive) | GI50 (K562): 31.3 µM (inactive) | GI50 (KM12): 21.9 µM (inactive) | GI50 (LOX IMVI): 17.7 µM (inactive) | GI50 (M14): 19.5 µM (inactive) | GI50 (MCF7): 18.3 µM (inactive) | GI50 (MDA-MB-231): 23 µM (inactive) | GI50 (MDA-MB-435): 16.8 µM (inactive) | GI50 (MDA-N): 19.2 µM (inactive) | GI50 (MOLT-4): 19.4 µM (inactive) | GI50 (Malme-3M): 17.4 µM (inactive) | GI50 (NCI-H226): 21.7 µM (inactive) | GI50 (NCI-H23): 21.2 µM (inactive) | GI50 (NCI-H460): 18 µM (inactive) | GI50 (NCI/ADR-RES): 18.1 µM (inactive) | GI50 (OVCAR-3): 18.6 µM (inactive) | GI50 (OVCAR-4): 18 µM (inactive) | GI50 (OVCAR-5): 18.3 µM (inactive) | GI50 (OVCAR-8): 17.1 µM (inactive) | GI50 (PC-3): 17 µM (inactive) | GI50 (RPMI-8226): 23.3 µM (inactive) | GI50 (SF-295): 17.5 µM (inactive) | GI50 (SK-MEL-28): 16.3 µM (inactive) | GI50 (SK-MEL-2): 16.4 µM (inactive) | GI50 (SK-MEL-5): 19.2 µM (inactive) | GI50 (SK-OV-3): 18.2 µM (inactive) | GI50 (SN12C): 19.2 µM (inactive) | GI50 (SNB-19): 17.7 µM (inactive) | GI50 (SR): 23.4 µM (inactive) | GI50 (SW-620): 17.5 µM (inactive) | GI50 (T47D): 19.8 µM (inactive) | GI50 (TK-10): 19.1 µM (inactive) | GI50 (U-251): 16 µM (inactive) | GI50 (UACC-257): 17.5 µM (inactive) | GI50 (UACC-62): 27.7 µM (inactive) | GI50 (UO-31): 15 µM (inactive)

CC#CC#C/C=C1/O[C@]2(CCC(OC(=O)CC(C)C)CO2)[C@@H]2O[C@H]12 (stereo partly specified)
GI50 (786-0): 20.9 µM (inactive) | GI50 (A498): > 100 µM (inactive) | GI50 (A549): 39.6 µM (inactive) | GI50 (ACHN): 21 µM (inactive) | GI50 (BT-549): 24.1 µM (inactive) | GI50 (CAKI-1): 18.2 µM (inactive) | GI50 (CCRF-CEM): 7.69 µM (inactive) | GI50 (DU-145): 42.5 µM (inactive) | GI50 (EKVX): 28.9 µM (inactive) | GI50 (HCC 2998): 19.5 µM (inactive) | GI50 (HCT-116): 15.4 µM (inactive) | GI50 (HCT-15): 21 µM | GI50 (HL-60): 19.7 µM (inactive) | GI50 (HOP-62): 42.7 µM (inactive) | GI50 (HOP-92): 27.4 µM (inactive) | GI50 (HT-29): 18.2 µM (inactive) | GI50 (Hs-578T): 52.5 µM (inactive) | GI50 (IGROV-1): 91.4 µM (inactive) | GI50 (K562): 31.3 µM (inactive) | GI50 (KM12): 27 µM (inactive) | GI50 (LOX IMVI): 16.2 µM (inactive) | GI50 (M14): 21.9 µM (inactive) | GI50 (MCF7): 33 µM (inactive) | GI50 (MDA-MB-231): 24 µM (inactive) | GI50 (MDA-MB-435): 21.1 µM (inactive) | GI50 (MDA-N): 22.5 µM (inactive) | GI50 (MOLT-4): 18.7 µM (inactive) | GI50 (Malme-3M): 21.8 µM (inactive) | GI50 (NCI-H23): 24.5 µM (inactive) | GI50 (NCI-H460): 36.1 µM (inactive) | GI50 (NCI-H522): 19.3 µM (inactive) | GI50 (NCI/ADR-RES): 28.4 µM (inactive) | GI50 (OVCAR-3): 21.5 µM (inactive) | GI50 (OVCAR-4): 29.6 µM (inactive) | GI50 (OVCAR-5): 28.2 µM (inactive) | GI50 (OVCAR-8): 32.4 µM (inactive) | GI50 (PC-3): 23.5 µM (inactive) | GI50 (RPMI-8226): 19.7 µM (inactive) | GI50 (RXF 393): 21.7 µM (inactive) | GI50 (SF-268): 24.4 µM (inactive) | GI50 (SK-MEL-2): 21.6 µM (inactive) | GI50 (SK-OV-3): > 100 µM (inactive) | GI50 (SN12C): 22.2 µM (inactive) | GI50 (SNB-19): 61.7 µM (inactive) | GI50 (SNB-75): 78.5 µM (inactive) | GI50 (SR): 28.1 µM (inactive) | GI50 (SW-620): 19.2 µM (inactive) | GI50 (T47D): 20.5 µM (inactive) | GI50 (TK-10): 25.7 µM (inactive) | GI50 (U-251): 21.7 µM (inactive) | GI50 (UACC-257): 30.3 µM (inactive) | GI50 (UACC-62): 23.3 µM (inactive) | GI50 (UO-31): 18.9 µM (inactive)

COCC1OC(S(=O)(=O)c2ccccc2)C(O)C(OC)C1OC (stereo unspecified)
GI50 (786-0): > 100 µM (inactive) | GI50 (A549): > 100 µM (inactive) | GI50 (ACHN): > 100 µM (inactive) | GI50 (BT-549): > 100 µM (inactive) | GI50 (CAKI-1): > 100 µM (inactive) | GI50 (CCRF-CEM): > 100 µM (inactive) | GI50 (COLO 205): > 100 µM (inactive) | GI50 (DU-145): > 100 µM (inactive) | GI50 (EKVX): > 100 µM (inactive) | GI50 (HCC 2998): > 100 µM (inactive) | GI50 (HCT-116): > 100 µM (inactive) | GI50 (HCT-15): > 100 µM | GI50 (HL-60): > 100 µM (inactive) | GI50 (HOP-62): > 100 µM (inactive) | GI50 (HT-29): > 100 µM (inactive) | GI50 (Hs-578T): > 100 µM (inactive) | GI50 (IGROV-1): > 100 µM (inactive) | GI50 (K562): > 100 µM (inactive) | GI50 (KM12): > 100 µM (inactive) | GI50 (LOX IMVI): > 100 µM (inactive) | GI50 (M14): > 100 µM (inactive) | GI50 (MCF7): > 100 µM (inactive) | GI50 (MDA-MB-231): > 100 µM (inactive) | GI50 (MDA-MB-435): > 100 µM (inactive) | GI50 (MDA-N): > 100 µM (inactive) | GI50 (MOLT-4): > 100 µM (inactive) | GI50 (Malme-3M): > 100 µM (inactive) | GI50 (NCI-H226): > 100 µM (inactive) | GI50 (NCI-H23): > 100 µM (inactive) | GI50 (NCI-H460): > 100 µM (inactive) | GI50 (NCI-H522): > 100 µM (inactive) | GI50 (NCI/ADR-RES): > 100 µM (inactive) | GI50 (OVCAR-3): > 100 µM (inactive) | GI50 (OVCAR-4): > 100 µM (inactive) | GI50 (OVCAR-5): > 100 µM (inactive) | GI50 (OVCAR-8): > 100 µM (inactive) | GI50 (PC-3): > 100 µM (inactive) | GI50 (RXF 393): > 100 µM (inactive) | GI50 (SF-268): > 100 µM (inactive) | GI50 (SF-295): > 100 µM (inactive) | GI50 (SF-539): > 100 µM (inactive) | GI50 (SK-MEL-28): > 100 µM (inactive) | GI50 (SK-MEL-2): > 100 µM (inactive) | GI50 (SK-MEL-5): > 100 µM (inactive) | GI50 (SK-OV-3): > 100 µM (inactive) | GI50 (SN12C): > 100 µM (inactive) | GI50 (SNB-19): > 100 µM (inactive) | GI50 (SR): > 100 µM (inactive) | GI50 (SW-620): > 100 µM (inactive) | GI50 (T47D): > 100 µM (inactive) | GI50 (TK-10): > 100 µM (inactive) | GI50 (U-251): > 100 µM (inactive) | GI50 (UACC-257): > 100 µM (inactive) | GI50 (UACC-62): > 100 µM (inactive) | GI50 (UO-31): > 100 µM (inactive)
